The record followed here is patent US6992068B2 (Gifu Shellac Mfg., Co., Ltd., priority 2000, dated 2006).

Test [1] has as its system autoimmune encephalomyelitis model. The test is described as follows: Experiment 3: autoimmune encephalomyelitis model, clinical score. As to conditions: purified periandrins in the model of Experiment 3. Type of test: in vivo, rats.
Test [2] deals with T1, 11 β-hydroxysteroid dehydrogenase (Rattus norvegicus, UniProt P16232).
T1 construct: Fresh rat liver was ice-cooled and homogenized in 0.25 M sucrose solution; from tissue; host or cells: rat liver microsome fraction
The test is described as follows: Experiment 5: inhibition of 11 β-hydroxysteroid dehydrogenase activity (rat liver microsome, cortisone by HPLC). The class given is biochemical. As to conditions: for inhibitory activity relative to glycirrhizin: from IC50 values; for IC50: rat liver microsome, substrate hydrocortisone, NADP 1 mM, pH 8.0, read-out: IC50 (concentration in which 50 percent of enzyme activity is inhibited). How it is done:
In order to evaluate the effect of inhibiting 11 β-hydeoxysteroid dehydrogenase activity by the purified periandrins (PD-I, PD-II, PD-III, PD-IV) obtained in Example 4 or 5, IC 50 values (concentration in which the 50 percent of activity of the above enzyme is inhibited) of the purified periandrins were measured by the following steps I-VI.
I. An enzymatic solution containing rat liver microsome as a preparation of 11 β-hydroxysteroid dehydrogenase was prepared as below.
Fresh rat liver was ice-cooled and homogenized in 0.25 M sucrose solution. Then, at the temperature of 4° C., it was centrifuged for 20 minutes at 10,000×g.
After separating cell organelles of the nucleus, mitochondria and lysosome as deposits, the supernatant layer was further centrifuged at 105,000×g for 60 minutes at the temperature of 4° C. to obtain a microsome fraction as a precipitate.
The obtained microsome fraction was suspended by 0.25 M sucrose solution to produce an enzymatic solution, and the obtained solution was stored at the temperature of −20 degrees till the time of measurement of enzyme activity.
1 mM of NADP (product of Oriental Yeast Co., Ltd,) as a coenzyme and an amount of PD-I having a predetermined concentration (ranging from 2 to 1480 μM) as an inhibitor were added to 0.8 ml of Tris-HCI buffer solution having the concentration of 100 mM (PH8.0).
0.2 ml of the enzymatic solution prepared in step I was added to the obtained solution, and after three minutes of preincubation at 37° C., 0.02 ml of 5 mM hydrocortisone solution which was dissolved in methanol was added to start a reaction between 11 β-hydroxysteroid dehydrogenase and PD-I. The reaction was continued for 30 minutes at the temperature of 30° C., and then it was stopped by adding 0.5 ml of ethyl acetate.
This solution was centrifuged and an ethyl acetate layer was separated into an Eppendorf tube. In the mean time, cortisone and substrate hydrocortisone generated by the reaction between 11 β-hydroxysteroid dehydrogenase and substrate hydrocortisone are transferred to the ethyl acetate layer.
Furthermore, the water phase after the centrifuge was again centrifuged in the same manner as above by adding 0.5 ml of ethyl acetate to separate an ethyl acetate layer. This process was repeated two more times.
The ethyl acetate layers obtained by three time extraction were put together into an Eppendorf tube and dried using a centrifugal evaporator.
To prepare a measurement sample, 0.2 ml of methanol was added into the Eppendorf tube in which the ethyl acetate layers were dried in step II, and then the tube was left for a night so that cortisone was completely dissolved. Cortisone was determined using HPLC.
Particularly, quantity of cortisone contained in the sample was calculated from a ratio of a peak area corresponding to cortisone when the measurement sample was introduced to HPLC to a peak area when 5 μl of standard solution (0.1 mg/ml of cortisone-methanol solution) was introduced.
The measurement conditions of HPLC were as follows.
IV. Relative activity (ratio of activity remained after reaction with an inhibitor to the initial activity) of 11 β-hydroxysteroid dehydrogenase was calculated from the quantity of cortisone in accordance with the following equation. Relative activity=((CI−CBL)/(CT−CBL))×100(%) • where • CT: cortisone quantity generated when no inhibitor is added; • CI: cortisone quantity generated when an inhibitor exists; and • CBL: cortisone quantity when enzyme is not added.
V. Measurement of relative activity when PD-II, PD-III, PD-IV, and glycirrhizin were added as an inhibitor instead of PD-I was performed in the same manner as in steps I-IV.
The concentration of the inhibitor PD-I, PD-II, PD-III or PD-IV in the measurement of relative activity is a predetermined value ranging from 2 to 1480 μM. The concentration of glycirrhizin is a predetermined value ranging from 0.2 to 445 μM. […]

The subject of the next test is cytokine production. The test is described as follows: Experiment 6: inhibition of cytokine production by purified periandrins, same manner as Experiment 1. As to conditions: 0.1-3 mg/Kg of body weight per injection. Type of test: in vivo, rats. How it is done:
(§1) In this case, however, the number of groups of rats were made six, one of which includes the rats to which PD-I was injected, another of which includes the rats to which PD-II was injected, another of which includes the rats to which PD-III was injected, another of which includes the rats to which PD-IV was injected, another of which includes the rats to which prednisolone acetate was injected, and another of which includes the rats to which a solvent without any drugs was injected.
(§2) The dose per one injection of PD-I, PD-II, PD-III and PD-IV was 0.1-3 mg/Kg of body weight.
(§3) The dose per one injection of prednisolone acetate was 5 mg/Kg of body weight.

The next test relates to liver function. Description: Experiment 6: protecting and promoting liver function by purified periandrins, same manner as Experiment 1. Type of test: in vivo, rats. The note with it: 0.1-3 mg/Kg of body weight per injection. How it is done:
as §1, §2, §3

For test [3], the system named is collagen induction arthritis model. Description: Experiment 2: collagen induction arthritis model, arthritis index. Type of test: in vivo, mice. The note with it: purified periandrins in the model of Experiment 2. The method, then:
Clinical symptoms of arthritis of mice in the respective groups were evaluated by one and the same observer using 6 rankings from zero to five (the larger the value is, the worse the symptom is), and the averages per the respective groups were calculated. These evaluations were performed in 0, 3rd, 4th, 5th, 6th, 7th and 8th week after the first immunity The results were shown in FIG. 3 and Table 3.

T1 sequence (P16232 whole entry): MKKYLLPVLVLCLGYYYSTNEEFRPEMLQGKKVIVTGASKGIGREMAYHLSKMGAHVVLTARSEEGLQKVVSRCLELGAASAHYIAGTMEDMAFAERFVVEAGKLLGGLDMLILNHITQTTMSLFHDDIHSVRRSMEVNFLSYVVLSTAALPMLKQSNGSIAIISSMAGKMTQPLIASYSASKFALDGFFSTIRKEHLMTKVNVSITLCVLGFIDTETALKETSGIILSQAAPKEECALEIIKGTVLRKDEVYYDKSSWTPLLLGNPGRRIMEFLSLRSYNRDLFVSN

`CC1(C)[C@@H](O[C@@H]2O[C@H](C(=O)O)[C@@H](O)[C@H](O)[C@H]2O[C@@H]2O[C@H](C(=O)O)[C@@H](O)[C@H](O)[C@H]2O)CC[C@]2(C=O)[C@H]3CC[C@@H]4C5=C[C@@](C)(C(=O)O)CC[C@]5(C)CC[C@@]4(C)[C@]3(C)CC[C@@H]12` [PD-I, periandrin I]: the “symptoms of encephalomyelitis” value in test [1] is “eased the symptoms of arthritis and encephalomyelitis”. In test [2], the “inhibitory activity relative to glycirrhizin” value is listed as “about one fifth to one twentieth of glycirrhizin” and the IC50 came out at 214 µM. For the same compound, the “effect of inhibiting cytokine production” value in the test with cytokine production is given as “show the effects of inhibiting cytokine production”. Further, the “effect of protecting and promoting liver function” value in the test on liver function was “protecting and promoting liver function”. Also, the “symptoms of arthritis” value in test [3] is “eased the symptoms of arthritis”.
In the case of `CC1(C(=O)O)C=C2C3CCC4C5(CO)CCC(OC6OC(C(=O)O)C(O)C(O)C6OC6OC(C(=O)O)C(O)C(O)C6O)C(C)(C)C5CCC4(C)C3(C)CCC2(C)CC1` (stereo not shown) [PD-III, periandrin III], in test [1], the “symptoms of encephalomyelitis” value is “eased the symptoms of arthritis and encephalomyelitis”. In addition, in test [2], the “inhibitory activity relative to glycirrhizin” value is recorded as “about one fifth to one twentieth of glycirrhizin” and the IC50 was 581 µM. Further, the “effect of inhibiting cytokine production” value in the test on cytokine production is reported as “show the effects of inhibiting cytokine production”. In the test with liver function, the “effect of protecting and promoting liver function” value was “protecting and promoting liver function”. Moreover, the “symptoms of arthritis” value in test [3] was “eased the symptoms of arthritis”.
As to `CC1(C)[C@@H](O[C@H]2O[C@H](C(=O)O)[C@@H](O)[C@H](O)[C@H]2O[C@@H]2O[C@H](C(=O)O)[C@@H](O)[C@H](O)[C@H]2O)CC[C@]2(C)[C@H]3C(=O)C=C4[C@@H]5C[C@@](C)(C(=O)O)CC[C@]5(C)CC[C@@]4(C)[C@]3(C)CC[C@@H]12` [glycirrhizin, reference compound], in test [2], the IC50 was found to be 26.2 µM.
Regarding periandrin II [PD-II], the “symptoms of encephalomyelitis” value in test [1] is “eased the symptoms of arthritis and encephalomyelitis”. In test [2], the “inhibitory activity relative to glycirrhizin” value is “about one fifth to one twentieth of glycirrhizin” and the IC50 amounted to 150 µM. The “effect of inhibiting cytokine production” value in the test with cytokine production is “show the effects of inhibiting cytokine production”. Besides, in the test with liver function, the “effect of protecting and promoting liver function” value was “protecting and promoting liver function”. For the same compound, the “symptoms of arthritis” value in test [3] is on record as “eased the symptoms of arthritis”.
As to periandrin IV [PD-IV], the “symptoms of encephalomyelitis” value in test [1] is “eased the symptoms of arthritis and encephalomyelitis”. Besides, in test [2], the “inhibitory activity relative to glycirrhizin” value is “about one fifth to one twentieth of glycirrhizin” and the IC50 worked out at 240 µM. Further, in the test on cytokine production, the “effect of inhibiting cytokine production” value is on record as “show the effects of inhibiting cytokine production”. In the test with liver function, the “effect of protecting and promoting liver function” value is “protecting and promoting liver function”. In test [3], the “symptoms of arthritis” value is “eased the symptoms of arthritis”.
